Experimental data from ChEMBL document CHEMBL1201862, “PubChem BioAssay data set” (2004).
Activity calls are given as the source filed them.

Assays:
[1] = system: BJ; assay: cytotoxicity toward BJ-TERT fibroblasts, dose response, cell-based, RAS-independent, luminescence (AID 1933); format: functional; conditions: Homo sapiens
[2] = system: BJ; assay: cells; format: functional, cell-based; conditions: Homo sapiens
[3] = system: BJ; assay: cytotoxicity toward BJ-TERT-LT-ST fibroblasts, dose response, cell-based, RAS-independent, luminescence (AID 1935); format: functional; conditions: Homo sapiens;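 note: BJ fibroblasts immortalized with TERT plus LT and ST oncogenes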
[4] = cytotoxicity toward DRD oncogenic fibroblasts, dose response, cell-based, non-viral oncogenic, luminescence (AID 1934); format: functional; conditions: Homo sapiens
[5] = molecular target: DNA dC->dU-editing enzyme APOBEC-3A (Homo sapiens, UniProt P31941); assay: Dose Response confirmation of small molecule APOBEC3A DNA Deaminase Inhibitors via a fluorescence-based single-stranded DNA deaminase assay. [Related pubchem assays (depositor defined):AID493011, AID493024]; format: functional
Chain of DNA dC->dU-editing enzyme APOBEC-3A (P31941 whole entry): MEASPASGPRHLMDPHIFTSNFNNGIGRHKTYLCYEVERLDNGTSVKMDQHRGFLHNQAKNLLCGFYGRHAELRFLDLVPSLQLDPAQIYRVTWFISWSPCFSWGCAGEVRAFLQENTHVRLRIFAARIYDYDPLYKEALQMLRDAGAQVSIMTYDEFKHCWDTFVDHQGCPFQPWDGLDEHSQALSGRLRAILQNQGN

[6] = molecular target: T1, Short transient receptor potential channel 4 (Mus musculus, UniProt Q9QUQ5); assay: mouse TRPC4 channel inhibitors, dose response, cell-based, HEK293 TRPC4/mu-opioid, Fluo-4 calcium (AID 434942); format: functional;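 note: potency of inhibitors blocking the TRPC4 calcium response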
T1 sequence (Q9QUQ5 whole entry): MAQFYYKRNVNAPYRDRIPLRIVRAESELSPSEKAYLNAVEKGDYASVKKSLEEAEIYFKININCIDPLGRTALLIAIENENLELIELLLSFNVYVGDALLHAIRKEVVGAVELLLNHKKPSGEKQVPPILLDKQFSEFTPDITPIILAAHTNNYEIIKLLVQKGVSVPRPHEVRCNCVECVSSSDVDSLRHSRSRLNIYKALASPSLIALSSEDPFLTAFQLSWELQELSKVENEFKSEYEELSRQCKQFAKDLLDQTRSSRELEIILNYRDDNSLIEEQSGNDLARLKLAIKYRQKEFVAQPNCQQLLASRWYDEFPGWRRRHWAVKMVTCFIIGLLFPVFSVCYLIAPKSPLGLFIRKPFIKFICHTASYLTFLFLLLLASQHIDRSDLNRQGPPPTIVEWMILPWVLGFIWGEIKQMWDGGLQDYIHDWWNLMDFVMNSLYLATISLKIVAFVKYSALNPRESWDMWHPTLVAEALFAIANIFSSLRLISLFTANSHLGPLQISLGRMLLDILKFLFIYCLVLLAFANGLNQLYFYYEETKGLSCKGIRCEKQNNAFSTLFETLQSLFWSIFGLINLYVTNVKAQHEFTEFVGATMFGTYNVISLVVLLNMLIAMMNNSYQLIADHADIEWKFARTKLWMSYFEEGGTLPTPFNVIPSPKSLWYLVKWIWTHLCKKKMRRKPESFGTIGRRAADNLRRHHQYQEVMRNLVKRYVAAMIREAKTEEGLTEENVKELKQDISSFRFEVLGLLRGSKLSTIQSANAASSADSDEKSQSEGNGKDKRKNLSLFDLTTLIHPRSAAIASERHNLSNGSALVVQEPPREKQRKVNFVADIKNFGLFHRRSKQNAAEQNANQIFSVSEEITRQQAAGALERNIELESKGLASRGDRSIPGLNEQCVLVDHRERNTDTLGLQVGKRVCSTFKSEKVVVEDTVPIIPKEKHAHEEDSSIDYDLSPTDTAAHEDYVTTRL

[7] = molecular target: DNA dC->dU-editing enzyme APOBEC-3G (Homo sapiens, UniProt Q9HC16); format: functional;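 note: Dose-response counterscreen measuring inhibition of APOBEC3G DNA deaminase activity, run while confirming APOBEC3A inhibitors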
Chain of DNA dC->dU-editing enzyme APOBEC-3G (Q9HC16 whole entry): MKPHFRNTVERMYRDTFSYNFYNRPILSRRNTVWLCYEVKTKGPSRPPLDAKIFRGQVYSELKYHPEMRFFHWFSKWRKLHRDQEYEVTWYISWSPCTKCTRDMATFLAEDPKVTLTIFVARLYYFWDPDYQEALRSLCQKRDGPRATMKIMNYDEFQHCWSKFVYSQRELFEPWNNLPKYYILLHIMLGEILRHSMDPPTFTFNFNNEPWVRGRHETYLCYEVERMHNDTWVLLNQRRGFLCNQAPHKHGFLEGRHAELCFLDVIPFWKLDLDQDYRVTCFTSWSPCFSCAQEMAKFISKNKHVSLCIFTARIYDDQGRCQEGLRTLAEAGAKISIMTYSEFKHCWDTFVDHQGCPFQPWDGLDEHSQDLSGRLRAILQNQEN

[8] = system: BJ; assay: cytotoxicity toward Ras-transformed BJeLR fibroblasts, dose response, cell-based, alamar blue fluorescence, cherrypicked samples (AID 2631); format: functional; conditions: Homo sapiens;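 note: confirmatory dose-response assay in RAS-dependent BJ fibroblasts engineered with TERT, LT and ST, with cytotoxicity read by fluorescence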
[9] = system: INS1; assay: beta cell apoptosis inhibitors, cytokine rescue, dose response, luminescence, retest (AID 449756); format: functional, cell-based; conditions: Rattus norvegicus;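 note: cell death triggered by IL-1 beta plus TNF-alpha plus IFN-gamma mixture; protective hits raise ATP signal compared with cytokine alone wells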
[10] = Shn3 3'UTR reporter inhibitors, dose response, cell-based, Clone20 osteoblasts, firefly luciferase, cherry-picked (AID 624132); format: functional;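 note: firefly luciferase luminescence from reporter carrying the Shn3 3'UTR in osteoblasts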
[11] = HepG2 cell cytotoxicity, dose response, cytotoxicity control for Shn3 inhibitor project, CellTiter-Glo, cherry-picked (AID 624134); format: functional, cell-based
[12] = control 3'UTR Renilla luciferase suppression, dose response, counter-screen for Shn3 inhibitor project, cell-based, Clone20-Shn3RL, cherry-picked (AID 624133); format: functional
[13] = molecular target: T2, DNA repair and recombination protein RAD54-like (Homo sapiens, UniProt Q92698); assay: inhibitors of human RAD54 branch migration, confirmation, biochemical, fluorescence, cherry-picked samples, dose series (AID 651657); format: functional
T2 sequence (Q92698 whole entry): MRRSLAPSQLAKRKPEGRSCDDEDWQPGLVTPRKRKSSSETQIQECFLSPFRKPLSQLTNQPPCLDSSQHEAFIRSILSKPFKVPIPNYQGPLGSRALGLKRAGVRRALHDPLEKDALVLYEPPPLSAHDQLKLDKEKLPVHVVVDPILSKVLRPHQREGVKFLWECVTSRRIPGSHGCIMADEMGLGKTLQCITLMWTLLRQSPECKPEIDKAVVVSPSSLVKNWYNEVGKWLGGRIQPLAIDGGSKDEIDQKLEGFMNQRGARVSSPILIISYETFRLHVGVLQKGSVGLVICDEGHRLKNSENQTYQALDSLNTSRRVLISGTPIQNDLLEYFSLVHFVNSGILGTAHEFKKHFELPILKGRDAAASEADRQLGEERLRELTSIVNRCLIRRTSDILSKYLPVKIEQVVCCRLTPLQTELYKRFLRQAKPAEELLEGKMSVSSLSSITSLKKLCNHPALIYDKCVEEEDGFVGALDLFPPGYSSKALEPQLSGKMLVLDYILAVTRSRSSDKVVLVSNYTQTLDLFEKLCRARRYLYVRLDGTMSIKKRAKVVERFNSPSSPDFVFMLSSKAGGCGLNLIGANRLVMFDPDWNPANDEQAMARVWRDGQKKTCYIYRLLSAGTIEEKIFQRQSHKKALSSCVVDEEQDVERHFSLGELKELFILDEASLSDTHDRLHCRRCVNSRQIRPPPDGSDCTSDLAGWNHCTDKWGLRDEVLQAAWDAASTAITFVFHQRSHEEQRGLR

[14] = molecular target: T3, DNA repair protein RAD52 homolog (Homo sapiens, UniProt P43351); format: functional, biochemical
T3 sequence (P43351 whole entry): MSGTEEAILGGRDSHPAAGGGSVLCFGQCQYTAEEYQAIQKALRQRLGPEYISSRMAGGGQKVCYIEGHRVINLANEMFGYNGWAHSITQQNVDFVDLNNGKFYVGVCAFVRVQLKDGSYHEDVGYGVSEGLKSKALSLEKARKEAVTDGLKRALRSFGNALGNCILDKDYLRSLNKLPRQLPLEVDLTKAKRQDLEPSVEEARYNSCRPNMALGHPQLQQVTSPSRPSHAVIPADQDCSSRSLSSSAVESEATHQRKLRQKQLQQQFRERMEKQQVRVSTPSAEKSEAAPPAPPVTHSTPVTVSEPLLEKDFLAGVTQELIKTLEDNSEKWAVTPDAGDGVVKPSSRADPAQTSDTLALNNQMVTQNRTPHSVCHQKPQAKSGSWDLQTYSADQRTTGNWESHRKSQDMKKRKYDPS

[15] = AlphaScreen signal interference compounds, dose response, artefact control for ARNT-TACC3 interaction inhibitor project, biochemical, luminescence, cherry-pick (AID 651705); format: functional;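 note: AlphaScreen bead proximity signal that flags compounds interfering with the detection technology; potency reflects signal decrease which marks the compound as an assay artifact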
[16] = molecular target: T4, Probable nicotinate-nucleotide adenylyltransferase (Staphylococcus aureus (strain N315), UniProt P65502); format: functional, Staphylococcus aureus subsp. aureus N315;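 for IC50 Mean: confirmatory dose-response retesting of NadD inhibitor hits first found in an ultra-high-throughput screen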
T4 sequence (P65502 whole entry): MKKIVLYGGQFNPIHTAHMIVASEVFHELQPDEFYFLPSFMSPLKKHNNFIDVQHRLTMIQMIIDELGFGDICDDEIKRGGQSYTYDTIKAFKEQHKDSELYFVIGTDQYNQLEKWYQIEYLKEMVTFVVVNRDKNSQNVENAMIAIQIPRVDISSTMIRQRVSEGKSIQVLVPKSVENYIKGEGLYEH

[17] = molecular target: T4, Probable nicotinate-nucleotide adenylyltransferase; format: functional, Staphylococcus aureus subsp. aureus N315; conditions: read-out: IC50_Mean
[18] = molecular target: T5, Small ubiquitin-related modifier 1 (Homo sapiens, UniProt P63165); assay: inhibitors of SUMO1 peptide binding, dose response, biochemical, fluorescence polarization, uHTS hits (AID 624382); format: functional; conditions: read-out: IC50_Mean
T5 sequence (P63165 whole entry): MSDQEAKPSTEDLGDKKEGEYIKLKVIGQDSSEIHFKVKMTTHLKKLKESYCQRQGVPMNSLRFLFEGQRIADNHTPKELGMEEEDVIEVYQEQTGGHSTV

[19] = molecular target: T5, Small ubiquitin-related modifier 1; assay: inhibitors of SUMO1 partner interactions, dose response, biochemical, FRET (AID 624383); format: functional; conditions: read-out: IC50_Mean
[20] = system: Streptococcus sp. 'group A'; assay: growth inhibition of control SK(-) GAS strain, dose response, counter-screen for streptokinase expression inhibitor project, luminescence, kanamycin, BacTiterGlo, confirmation (AID 1900); format: functional, organism-based
[21] = molecular target: T6, Streptokinase A (Streptococcus pyogenes serotype M1, UniProt P10520); assay: S. pyogenes streptokinase expression inhibitors, potency, dose response, plasminogen activation absorbance, OD405 (AID 1914); format: functional, Streptococcus pyogenes M1 GAS;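 note: secreted streptokinase activity via plasminogen activation per viability signal from cell pellet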
T6 sequence (P10520 whole entry): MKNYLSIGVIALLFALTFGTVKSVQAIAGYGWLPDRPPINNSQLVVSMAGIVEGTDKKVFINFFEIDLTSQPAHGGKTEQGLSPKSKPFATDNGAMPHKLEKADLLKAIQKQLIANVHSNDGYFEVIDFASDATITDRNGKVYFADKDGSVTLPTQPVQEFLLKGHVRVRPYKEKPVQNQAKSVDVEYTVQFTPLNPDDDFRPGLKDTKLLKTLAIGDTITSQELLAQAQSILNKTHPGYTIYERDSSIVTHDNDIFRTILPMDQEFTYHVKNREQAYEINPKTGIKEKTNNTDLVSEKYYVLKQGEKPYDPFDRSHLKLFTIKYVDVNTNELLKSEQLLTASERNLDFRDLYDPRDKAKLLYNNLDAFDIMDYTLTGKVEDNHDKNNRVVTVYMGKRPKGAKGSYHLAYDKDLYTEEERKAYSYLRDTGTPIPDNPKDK

[22] = system: Streptococcus; assay: Group A Streptococcus viability loss, dose response, counter-screen for streptokinase expression inhibitor project, luminescence, BacTiterGlo (AID 1915); format: functional, organism-based;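 note: potency for reduction of bacterial viability or growth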
[23] = molecular target: T7, Endoribonuclease toxin MazF (Escherichia coli K-12, UniProt P0AE70); assay: MazF toxin RNase activators, dose response, biochemical, fluorescence, single-stranded RNA substrate, uHTS hits (AID 588481); format: functional
T7 sequence (P0AE70 whole entry): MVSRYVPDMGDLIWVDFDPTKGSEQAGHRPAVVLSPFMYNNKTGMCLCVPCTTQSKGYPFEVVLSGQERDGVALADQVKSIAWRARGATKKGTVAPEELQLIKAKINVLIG

[24] = molecular target: T7, Endoribonuclease toxin MazF; assay: fluorescent RNA oligo signal without MazF, dose response, counter-screen for MazEF activator project, biochemical, fluorescence, single-stranded RNase substrate (AID 588502); format: functional
[25] = molecular target: 26S proteasome non-ATPase regulatory subunit 14 (Homo sapiens, UniProt O00487); assay: inhibition of proteasome subunit RPN11 – biochemical, fluorescence polarization, uHTS hits, confirmation (AID 602368); format: functional
Chain of 26S proteasome non-ATPase regulatory subunit 14 (O00487 whole entry): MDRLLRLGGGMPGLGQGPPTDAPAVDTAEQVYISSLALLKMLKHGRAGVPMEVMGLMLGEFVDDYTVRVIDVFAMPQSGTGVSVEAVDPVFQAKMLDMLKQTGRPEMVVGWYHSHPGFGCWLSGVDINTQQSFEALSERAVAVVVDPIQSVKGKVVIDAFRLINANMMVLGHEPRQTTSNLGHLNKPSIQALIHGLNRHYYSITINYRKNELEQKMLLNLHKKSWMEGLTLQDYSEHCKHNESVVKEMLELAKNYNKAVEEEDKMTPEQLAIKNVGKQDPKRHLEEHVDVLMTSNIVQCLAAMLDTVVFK

[26] = molecular target: 72 kDa type IV collagenase (Homo sapiens, UniProt P08253); assay: Dose Response validation of uHTS RPN11 inhibitor hits using a MMP-2 Fluorescence assay.; format: functional
Chain of 72 kDa type IV collagenase (P08253 whole entry): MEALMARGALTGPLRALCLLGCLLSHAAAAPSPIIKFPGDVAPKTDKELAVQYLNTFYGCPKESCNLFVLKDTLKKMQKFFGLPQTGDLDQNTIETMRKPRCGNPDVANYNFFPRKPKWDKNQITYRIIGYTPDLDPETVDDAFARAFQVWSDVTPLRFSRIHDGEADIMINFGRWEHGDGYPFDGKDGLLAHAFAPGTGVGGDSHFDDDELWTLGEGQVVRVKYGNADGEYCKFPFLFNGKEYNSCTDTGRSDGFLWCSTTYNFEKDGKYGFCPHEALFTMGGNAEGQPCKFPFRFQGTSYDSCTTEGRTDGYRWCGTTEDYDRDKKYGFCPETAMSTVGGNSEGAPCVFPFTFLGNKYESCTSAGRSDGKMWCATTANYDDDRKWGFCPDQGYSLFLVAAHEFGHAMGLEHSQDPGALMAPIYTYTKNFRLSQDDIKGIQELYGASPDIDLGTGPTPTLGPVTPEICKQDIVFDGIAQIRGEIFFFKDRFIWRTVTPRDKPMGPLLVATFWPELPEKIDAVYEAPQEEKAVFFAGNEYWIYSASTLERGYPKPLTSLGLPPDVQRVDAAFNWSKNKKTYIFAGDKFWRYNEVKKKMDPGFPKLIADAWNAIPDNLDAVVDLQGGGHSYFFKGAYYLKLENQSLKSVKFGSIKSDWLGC

[27] = molecular target: Prothrombin (Bos taurus, UniProt P00735); assay: thrombin inhibition, dose response, biochemical, fluorescence polarization, uHTS hits (AID 602369); format: functional
[28] = system: Vero; assay: Vero cell cytotoxicity, cytotoxicity control for flavivirus capping enzyme inhibitors (AID 588742); format: functional; conditions: Chlorocebus sabaeus

## CN(C)CCCNc1c2ccccc2nc2ccccc12
[1]
  EC50: 1.92 µM (active)
[2]
  EC50: 3.21 µM (active)
[3]
  EC50: 5.56 µM (active)
[4]
  EC50: 4.72 µM (active)
[5]
  IC50: 18 µM (active)
[6]
  EC50: 1.33 µM (active)
[7]
  IC50: 58 µM (active)
[8]
  EC50: 0.454 µM (inconclusive)
[9]
  AC50: 0.533 µM (active)
[10]
  AC50: 3.22 µM (active)
[11]
  AC50: 7.82 µM (active)
[12]
  AC50: > 70 µM (inactive)
[13]
  AC50: 0.814 µM (active)
[14]
  AC50: 0.271 µM (active)

## COC(=O)c1ccc(CSc2ccc3nnc(-c4ccccn4)n3n2)o1
[15]
  AC50: 98.1 µM (active)

## O=C(NCc1ccco1)c1cccc2c1C(=O)c1ccc(/C=C/c3ccccc3)cc1S2(=O)=O
[16]
  IC50: 11.5 µM (active)
[17]
  IC50: 29.3 µM (active)

## COc1cc(CNCc2ccccn2)ccc1OCC(=O)NC(C)(C)C
[15]
  AC50: 90.6 µM (active)

## COc1cccc2sc(Nc3nc(-c4cc5ccccc5oc4=O)cs3)nc12
[18]
  IC50: > 66.6 µM (inactive)
[19]
  IC50: 2.42 µM (active)

## Cc1cc(C)c2nc(NNC(=O)c3cc(=O)c4ccccc4o3)sc2c1
[20]
  EC50: 0.296 µM (active)
[21]
  EC50: > 150 µM (not active)
[22]
  EC50: 7.16 µM (active)
[16]
  IC50: 4.41 µM (active)
[17]
  IC50: 28.2 µM (active)

## CCCN1C(=O)/C(=C/c2c(NCCCOC(C)C)nc3c(C)cccn3c2=O)SC1=S
[23]
  EC50: 16 µM (active)
[24]
  EC50: 34.2 µM (inactive)
[25]
  IC50: 0.09 µM (active)
[26]
  IC50: > 100 µM (inactive)
[27]
  IC50: 0.148 µM (active)

## NN=C1c2ccccc2C(=O)C1C(=O)C(c1ccccc1)c1ccccc1 (stereo unspecified)
[16]
  IC50: 13.8 µM (active)
[17]
  IC50: 25.5 µM (active)

## CCCCCCCCCCCC1NC(N)=NC(CCCO)=C1C(=O)OC (stereo unspecified)
[25]
  IC50: 19.9 µM (active)
[26]
  IC50: 85.8 µM (active)
[27]
  IC50: 42.3 µM (active)
[18]
  IC50: > 66.6 µM (inactive)
[19]
  IC50: 10.1 µM (active)
[14]
  AC50: 7.72 µM (active)

## CN1CCC[C@H]1CCNc1ccc2c(=O)c3ccccc3n(C)c2c1
[28]
  CC50: 30.7 µM (active)
[13]
  AC50: 5.81 µM (active)
[14]
  AC50: 2.17 µM (active)
